Measurements reported in ChEMBL document CHEMBL4425179, “Colorectal anticancer activities of polymethoxylated 3-naphthyl-5-phenylpyrazoline-carbothioamides” (Bioorg Med Chem Lett, 2016).
One block for each compound: values may come before it. Activity calls are given as the source filed them. No cut-off for these calls is given here.

How the values were obtained:
HCT-116 [1] = assay: Growth inhibition of human HCT116 cells after 7 days by clonogenic survival assay; format: functional; settings: HCT-116, 168 h
Aurora kinase B [2] = biological target: T1, Aurora kinase B (Homo sapiens, UniProt Q96GD4); assay: Inhibition of human recombinant His-tagged aurora B expressed in baculovirus infected Sf21 insect cells by Western blot analysis
HCT-116 [3] = assay: Cell cycle arrest in human HCT116 cells assessed as accumulation at sub-G1 phase at 20 uM after 48 hrs by propidium iodide staining based flow cytometry (reference value: 4%); format: functional
Homo sapiens = species on record: Homo sapiens; assay: Selectivity ratio of IC50 for human recombinant N-terminal His6-tagged full-length aurora A to IC50 for human recombinant His-tagged aurora B
HCT-116 [4] = assay: Cell cycle arrest in human HCT116 cells assessed as accumulation at G2/M phase at 20 uM after 24 to 48 hrs by propidium iodide staining based flow cytometry (reference value: 22.9 to 24%); format: functional
HCT-116 [5] = assay: Induction of apoptosis in human HCT116 cells assessed as caspase 7 cleavage at 20 uM after 36 hrs by Western blot analysis; format: functional, cell-based
[6] = biological target: T2, Aurora kinase A (Homo sapiens) (UniProt O14965); assay: Inhibition of aurora A in human HCT116 cells assessed as decrease in histone H3 phosphorylation at Ser-10 at 20 uM by Western blot analysis; format: cell-based; settings: TDE = time-dependent effect
T2 sequence (whole entry): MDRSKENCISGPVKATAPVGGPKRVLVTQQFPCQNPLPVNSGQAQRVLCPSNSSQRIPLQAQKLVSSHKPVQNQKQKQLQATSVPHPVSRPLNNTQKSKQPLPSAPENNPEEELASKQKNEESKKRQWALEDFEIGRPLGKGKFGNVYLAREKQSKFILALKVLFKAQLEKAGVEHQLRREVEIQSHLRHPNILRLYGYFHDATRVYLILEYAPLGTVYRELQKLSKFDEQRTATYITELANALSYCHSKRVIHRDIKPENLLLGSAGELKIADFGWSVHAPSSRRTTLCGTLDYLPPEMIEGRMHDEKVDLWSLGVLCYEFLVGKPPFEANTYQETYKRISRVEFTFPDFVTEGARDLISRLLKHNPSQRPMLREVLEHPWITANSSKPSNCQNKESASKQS

Aurora kinase B [7] = biological target: T1, Aurora kinase B; assay: Inhibition of aurora B phosphorylation at Thr-232 in human HCT116 cells at 20 uM by Western blot analysis; format: cell-based; settings: TDE = time-dependent effect
HCT-116 [8] = assay: Downregulation of cyclin B1 expression in human HCT116 cells at 20 uM by Western blot analysis; format: functional, cell-based; settings: TDE = time-dependent effect
HCT-116 [9] = assay: Cell cycle arrest in human HCT116 cells assessed as accumulation at G1 phase at 10 uM after 24 to 48 hrs by propidium iodide staining based flow cytometry (reference value: 51 to 58.9%); format: functional
HCT-116 [10] = assay: Cell cycle arrest in human HCT116 cells assessed as accumulation at S phase at 20 uM after 24 to 48 hrs by propidium iodide staining based flow cytometry (reference value: 13 to 18%); format: functional
HCT-116 [11] = assay: Cell cycle arrest in human HCT116 cells assessed as accumulation at G1 phase after 24 to 48 hrs by propidium iodide staining based flow cytometry; format: functional
HCT-116 [12] = assay: Induction of apoptosis in human HCT116 cells assessed as caspase 9 cleavage at 20 uM after 36 hrs by Western blot analysis; format: functional, cell-based
HCT-116 [13] = assay: Cell cycle arrest in human HCT116 cells assessed as accumulation at S phase at 40 uM after 24 to 48 hrs by propidium iodide staining based flow cytometry (reference value: 13 to 18%); format: functional
HCT-116 [14] = assay: Cell cycle arrest in human HCT116 cells assessed as accumulation at G1 phase at 40 uM after 24 to 48 hrs by propidium iodide staining based flow cytometry (reference value: 51 to 58.9%); format: functional
HCT-116 [15] = assay: Cell cycle arrest in human HCT116 cells assessed as accumulation at S phase at 10 uM after 24 to 48 hrs by propidium iodide staining based flow cytometry (reference value: 13 to 18%); format: functional
[16] = biological target: T3, Aurora kinase C (Homo sapiens) (UniProt Q9UQB9); assay: Inhibition of aurora C phosphorylation at Thr-198 in human HCT116 cells at 20 uM by Western blot analysis; format: cell-based; settings: TDE = time-dependent effect
T3 sequence (whole entry): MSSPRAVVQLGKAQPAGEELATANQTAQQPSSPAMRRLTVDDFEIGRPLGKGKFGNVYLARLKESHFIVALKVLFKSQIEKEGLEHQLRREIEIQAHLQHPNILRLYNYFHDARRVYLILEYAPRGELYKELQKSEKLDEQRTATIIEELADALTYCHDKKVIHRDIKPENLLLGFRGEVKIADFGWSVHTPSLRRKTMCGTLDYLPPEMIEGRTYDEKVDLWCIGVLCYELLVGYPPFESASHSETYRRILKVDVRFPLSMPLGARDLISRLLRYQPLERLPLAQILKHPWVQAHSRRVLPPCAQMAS

HCT-116 [17] = assay: Induction of apoptosis in human HCT116 cells assessed as caspase 3 cleavage at 20 uM after 36 hrs by Western blot analysis; format: functional, cell-based
Aurora kinase A = biological target: T4, Aurora kinase A (Homo sapiens, UniProt O14965); assay: Inhibition of human recombinant N-terminal His6-tagged full-length aurora A expressed in Sf21 insect cells using ER-alpha as substrate after 25 mins by immunoblot analysis
T4 sequence (O14965 whole entry): T2 sequence (whole entry)

HCT-116 [18] = assay: Cytotoxicity against human HCT116 cells assessed as decrease in cell viability after 24 hrs by WST-8 based CCK-8 assay; format: functional
HCT-116 [19] = assay: Cell cycle arrest in human HCT116 cells assessed as accumulation at G1 phase at 20 uM after 24 to 48 hrs by propidium iodide staining based flow cytometry (reference value: 51 to 58.9%); format: functional
HCT-116 [20] = assay: Induction of apoptosis in human HCT116 cells assessed as PARP cleavage at 20 uM after 36 hrs by Western blot analysis; format: functional, cell-based
[21] = biological target: T2, Aurora kinase A (Homo sapiens); assay: Inhibition of aurora A phosphorylation at Thr-288 in human HCT116 cells at 20 uM by Western blot analysis; format: cell-based; settings: TDE = time-dependent effect
HCT-116 [22] = assay: Downregulation of cyclin D1 expression in human HCT116 cells at 20 uM by Western blot analysis; format: functional, cell-based; settings: TDE = time-dependent effect
HCT-116 [23] = assay: Cell cycle arrest in human HCT116 cells assessed as accumulation at G2/M phase at 40 uM after 24 to 48 hrs by propidium iodide staining based flow cytometry (reference value: 22.9 to 24%); format: functional
Aurora kinase B [24] = biological target: T1, Aurora kinase B; assay: Inhibition of aurora B in human HCT116 cells assessed as decrease in histone H3 phosphorylation at Ser-10 at 20 uM by Western blot analysis; format: cell-based; settings: TDE = time-dependent effect
HCT-116 [25] = assay: Cell cycle arrest in human HCT116 cells assessed as accumulation at G2/M phase at 10 uM after 24 to 48 hrs by propidium iodide staining based flow cytometry (reference value: 22.9 to 24%); format: functional

T1 sequence (Q96GD4 whole entry): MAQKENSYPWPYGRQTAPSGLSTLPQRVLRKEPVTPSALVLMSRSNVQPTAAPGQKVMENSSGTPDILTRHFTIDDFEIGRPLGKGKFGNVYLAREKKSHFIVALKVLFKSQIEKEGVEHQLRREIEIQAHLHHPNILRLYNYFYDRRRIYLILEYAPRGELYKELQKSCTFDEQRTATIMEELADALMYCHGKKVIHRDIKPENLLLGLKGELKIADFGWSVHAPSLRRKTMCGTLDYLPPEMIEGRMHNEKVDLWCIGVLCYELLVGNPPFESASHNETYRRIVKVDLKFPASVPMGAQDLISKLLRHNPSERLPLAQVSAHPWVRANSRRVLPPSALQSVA

SMILES: COc1ccc(C2CC(c3ccc4ccccc4c3O)=NN2C(=S)Nc2ccc(OC)cc2OC)cc1 (stereo not drawn)
GI50 (HCT-116 [1]; read-out: GI50): 2.47 µM
GI50 (HCT-116 [1]; read-out: pGI50 (converted)): 2.45 µM

SMILES: COc1cccc(NC(=S)N2N=C(c3ccc4ccccc4c3O)CC2c2ccccc2OC)c1 (stereo not drawn)
GI50 (HCT-116 [1]; read-out: GI50): 0.445 µM
GI50 (HCT-116 [1]; read-out: pGI50 (converted)): 0.447 µM

SMILES: COc1ccc(NC(=S)N2N=C(c3ccc4ccccc4c3O)CC2c2ccccc2OC)cc1 (stereo not drawn)
GI50 (HCT-116 [1]; read-out: GI50): 0.369 µM
GI50 (HCT-116 [1]; read-out: pGI50 (converted)): 0.372 µM

SMILES: COc1ccccc1C1CC(c2c(O)ccc3ccccc23)=NN1C(=S)Nc1ccccc1 (stereo not drawn)
GI50 (HCT-116 [1]; read-out: GI50): 2.5 µM
GI50 (HCT-116 [1]; read-out: pGI50 (converted)): 2.51 µM

SMILES: COc1ccc(C2CC(c3ccc4ccccc4c3O)=NN2C(=S)Nc2cc(OC)c(OC)c(OC)c2)cc1 (stereo not drawn)
GI50 (HCT-116 [1]; read-out: GI50): 0.208 µM
GI50 (HCT-116 [1]; read-out: pGI50 (converted)): 0.209 µM

SMILES: COc1ccc(NC(=S)N2N=C(c3ccc4ccccc4c3O)CC2c2cccc(OC)c2)cc1 (stereo not drawn)
GI50 (HCT-116 [1]; read-out: GI50): 0.318 µM
GI50 (HCT-116 [1]; read-out: pGI50 (converted)): 0.316 µM

SMILES: COc1cccc(C2CC(c3ccc4ccccc4c3O)=NN2C(=S)Nc2ccccc2OC)c1 (stereo not drawn)
GI50 (HCT-116 [1]; read-out: GI50): 3.92 µM
GI50 (HCT-116 [1]; read-out: pGI50 (converted)): 3.89 µM

SMILES: COc1ccc(NC(=S)N2N=C(c3ccc4ccccc4c3O)CC2c2ccc(OC)cc2)cc1 (stereo not drawn)
GI50 (HCT-116 [1]; read-out: GI50): 0.234 µM
GI50 (HCT-116 [1]; read-out: pGI50 (converted)): 0.234 µM

IC50 (Aurora kinase B [2]): 8.53 µM
Ratio IC50 (Homo sapiens): 12.3
inhibition [6]: Tde
inhibition (Aurora kinase B [7]): Tde
inhibition [16]: Tde
IC50 (Aurora kinase A): 105 µM
inhibition [21]: Tde
inhibition (Aurora kinase B [24]): Tde
SMILES: COc1ccc(C2CC(c3ccc4ccccc4c3O)=NN2C(=S)Nc2cccc(OC)c2)cc1 (stereo not drawn)
Activity (HCT-116 [3]): 17%
Activity (HCT-116 [4]): 25.7 - 27%
Activity (HCT-116 [5]): Active
Activity (HCT-116 [8]): Tde
Activity (HCT-116 [9]): 45.6%
Activity (HCT-116 [10]): 27.4 - 28%
Activity (HCT-116 [11]): Dose-dependent effect
Activity (HCT-116 [12]): Active
Activity (HCT-116 [13]): 29.4%
Activity (HCT-116 [14]): 36.8%
Activity (HCT-116 [15]): 23.7%
Activity (HCT-116 [17]): Active
Activity (HCT-116 [18]): Dose-dependent effect
Activity (HCT-116 [19]): 18 - 43.2%
GI50 (HCT-116 [1]; read-out: GI50): 0.196 µM
GI50 (HCT-116 [1]; read-out: pGI50 (converted)): 0.195 µM
Activity (HCT-116 [20]): Active
Activity (HCT-116 [22]): Tde
Activity (HCT-116 [23]): 30.8%
Activity (HCT-116 [25]): 26.8%

SMILES: COc1ccccc1C1CC(c2ccc3ccccc3c2O)=NN1C(=S)Nc1cc(OC)c(OC)c(OC)c1 (stereo not drawn)
GI50 (HCT-116 [1]; read-out: GI50): 0.223 µM
GI50 (HCT-116 [1]; read-out: pGI50 (converted)): 0.224 µM

SMILES: COc1ccc(C2CC(c3ccc4ccccc4c3O)=NN2C(=S)Nc2ccccc2)cc1 (stereo not drawn)
GI50 (HCT-116 [1]; read-out: GI50): 0.239 µM
GI50 (HCT-116 [1]; read-out: pGI50 (converted)): 0.24 µM
